Measurements: patent US5663151A, “Sulfated α-glycolipid derivatives as cell adhesion inhibitors” (Bristol-Myers Squibb Company, priority 1995, dated 1997)

Key:
rats = test: Reverse passive Arthus reaction (RPA) in rats; format: in vivo, Male Sprague Dawley rats; settings: 3 mg single dose IV, 4 hours; for RPA MPO % Inhib.: myeloperoxidase; for RPA VP % Inhib.: vascular permeability
Source text: 3. Reverse Passive Arthus Reaction in Rats
The reverse passive Arthus reaction in rats is a modification of the method by Mulligan et al., as described in J. Clin. Invest. (1991) 88: 1396-1406. This is an experimental model in which the interaction of antigen-antibodycomplexes and complement leads to a severe vasculitis that is associated with edema, induration, erythema and hemorrhage. The interaction between the antigen-antibody complexes and complement leads to a localized influx of neutrophils. These neutrophils release a variety of mediators that are associated with tissue damage and vascular permeability. The localized inflammatory reaction is measured using different techniques i.e., vascular permeability and neutrophil influx which is evaluated both biochemically and microscopically.
Male Sprague Dawley specific pathogen-free rats with jugular vein cannulae (280-320 g, Hill Top Labs, Pa.) are used in these studies. Animals are acclimated for at least 1 day and individually housed in stainless steel cages. The dorsal region of the rats is closely clipped 2 days prior to the experiments and divided into 4 sites on each side of the midline. Prior to all injections the rats are sedated with 0.4 ml per 300 gm rat of ketamine/rompun [1000 mg (10 ml) of ketamine HCL is mixed with 40 mg (2.0 ml) Rompun] administered IP and or inhalation anesthesia with metafane (methoxyflurane).
Bovin Serum Albumin (BSA) and rabbit polyclonal IgG rich in anti-BSA are purchased from Sigma Chemical Co. (St. Louis, Mo.). Radiolabelled ^125 I-BSA (spAct 1-5 μCi/μg) is purchased from Dupont NEN (Boston, Mass.).
Each rat is administered intradermal (ID) injection of (0.4 mg, 0.6 mg and 0.8 mg) anti-BSA in a volume of 100 μl per injection in normal saline. The ID injections are randomized near the mid dorsal region on both sides of the back bone. Immediately after the ID injections of the anti-BSA, the rats are administered intravenous (IV) injections of BSA (10 mg in 1.0 ml) in normal saline containing ^125 I labeled BSA (1 μCi/ml BSA or 5.0 μCi/kg body wt) for quantification of dermal vascular injury. Anti-inflammatory agents such as inhibitors of adhesion molecules of the present invention are administered IV at a single dose of 3 mg immediately after BSA. Four (4) hours after the IV injection of BSA, the rats are anesthetized with metafane and 2 to 3 ml of blood is withdrawn via the cannula into an anticoagulant containing (EDTA or Heparin) tube and plasma separated and saved for neutrophil and albumin quantitation. The rats are killed and the skin surrounding the injection site (15 mm diameter) is punched out and weighed. The skin samples and a fixed volume of plasma (0.1 to 1.0 ml) is analyzed in a gamma-counter for ^125 I content. Skin samples from the contralateral side are processed and analyzed for myeloperoxidase activity (MPO) as a measure of neutrophil accumulation. As needed, samples are also processed for histological evaluation of the reacted sites.
Vascular Permeability (VP)
The calculation of the plasma protein exudation into skin is made by determining the radioactivity in the tissue and relating this to the level of radioactive albumin in the blood at the time of sacrifice. […] [formula]
Percent inhibition of the test compound at 3 mg was determined as follows: [formula] Myeloperoxidase (MPO)
MPO is located in the azurophil granules of polymorphonuclear leukocytes (PMN). Because of its abundance in these cells (5% dry weight), this enzyme is used as a marker for tissue neutrophil content. For tissue MPO content, the method of Bradley, et al., was used as described in J. Invest. Dermatol. (1982) 78: 206-209. Biopsies from each treatment group were placed in plastic tubes (15×100 mm) containing 10 ml of 0.5% hexadecyltrimethylammonium bromide (HTAB) in 0.05M potassium phosphate buffer pH 6.0. The tissue was then homogenized with a Brinkmann Polytron homogenizer (10s). […]

P-selectin Rg = target: T1, P-selectin Rg (Homo sapiens, UniProt P16109); test: HL-60 cell binding to P-selectin Rg; format: cell-based; settings: HL-60 cells, binding to P-selectin Rg coated wells
T1 construct: consists of the human lectin domain, the EGF domain, and two complement repeats of the human selectins; made in house
T1 sequence (P16109 with tags, fused parts or gaps limits assumed): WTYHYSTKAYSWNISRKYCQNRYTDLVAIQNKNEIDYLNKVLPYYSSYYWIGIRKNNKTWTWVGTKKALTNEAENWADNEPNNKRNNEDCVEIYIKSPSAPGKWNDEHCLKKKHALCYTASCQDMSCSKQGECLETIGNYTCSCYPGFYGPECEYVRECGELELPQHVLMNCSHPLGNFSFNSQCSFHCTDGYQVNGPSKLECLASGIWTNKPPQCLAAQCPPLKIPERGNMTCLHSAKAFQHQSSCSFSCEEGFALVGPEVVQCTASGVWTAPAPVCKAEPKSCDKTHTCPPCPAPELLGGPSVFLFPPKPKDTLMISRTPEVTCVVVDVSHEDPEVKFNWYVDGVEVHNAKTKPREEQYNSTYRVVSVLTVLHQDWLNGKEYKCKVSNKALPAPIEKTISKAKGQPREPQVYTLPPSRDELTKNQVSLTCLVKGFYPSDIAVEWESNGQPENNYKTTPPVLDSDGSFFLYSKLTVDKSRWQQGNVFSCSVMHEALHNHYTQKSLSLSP
Experimental: 2. HL-60 Cell Binding to P- and E-Selectin RG
The chimeric P- and E-selectin receptor globulin (Rg) consists of the human lectin domain, the EGF domain, and two complement repeats of the human selectins fused to the hinge, CH1 and CH2 domains of human IgG1. These proteins were prepared as described by Aruffo, et al., Cell (1991) 67: 35-44; Walz, et al., Science (1990) 250, 1132-1135.
The HL-60 cell line, obtained from the American Type Culture Collection, ATCC No. CCL240, was employed to investigate P-selectin Rg binding. Assays were done in 96-well tissue culture dishes. The wells were first coated with 0.5 ug goat anti-human Fc antiserum overnight, and nonspecific binding sites were blocked by incubation of the wells with 1% nonfat dry milk in phosphate buffered saline (PBS containing 0.9 mM CaCl2 and 0.8 mM MgSO4) for 30 minutes. The Rg was then bound to the anti Fc-coated wells by incubating 50 ng in 50 ul of PBS for two hours. Cells, washed twice and resuspended in PBS to remove traces of medium components, were labeled with 10 uM calcein acetoxy methyl ester for 30 minutes at 3×10^7 cells per ml at room temperature. Serum-containing medium (RPMI with 20% fetal calf serum) was added, and the cells washed, followed by resuspension in PBS and a further spin. The labeled cells, resuspended in PBS, were added to twice washed Rg-containing wells at 200,000 per well. Following a 30 minute incubation with slow shaking, the wells were aspirated and washed three times with PBS to remove unbound cells. To certain wells were added known numbers of cells for determination of a standard curve of fluorescent units per cell. The fluorescence on the plate was quantitated using a fluorescent plate reader. Following subtraction of a blank representing the binding of cells to non-Rg containing wells (<5000 cells), the specific binding to P- or E- selectin was determined.
Inhibitors of cell binding
Test compounds were prepared by dissolution to a final concentration of 20 mg/ml in dimethyl sulfoxide (DMSO), diluted in PBS to 2 mg/ml, and briefly sonicated prior to use. The Rg coated wells were preincubated at room temperature for 15 minutes with the inhibitor, and 200,000 cells were added to yield the final indicated inhibitor concentration in 160 ul of PBS. The data is obtained as percent inhibition of specific binding: [formula] and a plot of dose vs. percent inhibition of Rg binding is generated in which IC50 (μM) is calculated and reported in Table 1.

P-selectin [1] = target: T2, P-selectin (Homo sapiens, UniProt P16109); test: P-selectin binding ELISA to immobilized sulfatides (cell free); settings: inhibition of P-selectin binding to immobilized sulfatide
T2 construct: consists of the human lectin domain, the EGF domain, and two complement repeats of the human selectins; made in house
T2 sequence (P16109 with tags, fused parts or gaps limits assumed): as above
Experimental: Based on the availability of soluble forms of P-selectin prepared as described by Aruffo, A., et al., Cell, 67, 35-44 (1991), a binding ELISA based assay modified from Foxall, et al., J., Cell Biol., 117, 895-902 (1992) was developed to measure inhibitors of P-selectin binding to immobilized sulfatides. Such inhibitors were tested in the assay described below.
0.1 ml of sulfatide (SIGMA) or lysosulfatide (SIGMA) each at 1 μg/ml in MeOH were added to the wells of a 96-well ELISA plate (ProBind, Falcon) and allowed to dry overnight at room temperature. The next day the antigen coated plates were blocked for 1.5 hours at room temperature with 5% BSA (ICN) in buffer containing 20 mM Hepes and 0.15M NaCl, pH 8.0. Wild type P-selectin and mutants thereof were first mixed with HRP-conjugated goat anti-human lgG (Fisher Scientific), serially diluted and then incubated for 30 minutes at 37° C. in buffer containing 20 mM Hepes, 0.15M NaCl, 1% BSA and 0.8 mM CaCl2, pH 8.0 prior to addition to the BSA blocked plates. Following the 30 minute preincubation, the fusion protein-HRP conjugate immunocomplexes were incubated on the blocked antigen coated plates for 45 minutes at 37° C. in the presence or absence of the test compounds and then washed to remove any unbound proteins. Bound complexes were detected by addition of substrate buffer (95 mM NaOAc.3H2 O, 5 mM citric acid monohydrate, 1.4 mM urea/H2O2) containing 3, 3', 5, 5' Tetramethylbenzidine (SIGMA). Reactions were stopped by the addition of 3N sulfuric acid and the absorbance read on an ELISA reader at dual wavelengths 450 and 630 nm. The efficacy of these compounds was compared to that of sulfatide (positive control) or to lysosulfatide (negative control). The data is obtained as percent inhibition of specific binding [formula] and a plot of dose vs. percent inhibition of Rg binding is generated in which IC50 (μM) is calculated and reported as cell free data in Table 1.

P-selectin [2] = settings: Skinner et al.; cited from earlier work

| Molecule | RPA MPO % Inhib. (rats) [%] | RPA VP % Inhib. (rats) [%] | IC50 (P-selectin Rg) [µM] | IC50 (P-selectin [1]) [µM] | inhibit P-selectin mediated adhesion (P-selectin [2]) |
| --- | --- | --- | --- | --- | --- |
| CCCCCCCCCCCCC/C=C/[C@@H](OC(=O)c1ccccc1)[C@H](CO[C@H]1O[C@H](COS(=O)(=O)O)[C@H](OS(=O)(=O)O)[C@H](OC(=O)c2ccccc2)[C@H]1OC(=O)c1ccccc1)NC(=O)CCCCCCCCCCCCCCC [Example 1, (2S,3R,4E)-3-Benzoyloxy-2-hexadecanoylamino-1-[2,3-di-O-benzoyl-4,6-di-O-(sodiumoxysulfonyl)-α-D-galactopyranosyloxy]-4-octadecene] | 97 | 68 | 8.3 | 0.3 |  |
| CCCCCCCCCCCCC/C=C/[C@@H](O)[C@H](CO[C@H]1O[C@H](COS(=O)(=O)O)[C@H](OS(=O)(=O)O)[C@H](O)[C@H]1O)NC(=O)CCCCCCCCCCCCCCC [Example 2, (2S,3R,4E)-3-Hydroxy-2-hexadecanoylamino-1-[4,6-di-O-(sodiumoxysulfonyl)-α-D-galactopyranosyloxy]-4-octadecene] | 0 | 14 | 17 | 0.2 |  |
| CCCCCCCC/C=C\CCCCCCCCCCCCCC(=O)N[C@@H](CO[C@H]1O[C@H](COS(=O)(=O)O)[C@H](OS(=O)(=O)O)[C@H](O)[C@H]1O)[C@H](O)/C=C/CCCCCCCCCCCCC [Example 4, (2S,3R,4E)-3-Hydroxy-2-(cis-15-tetracosenoylamino)-1-[4,6-di-O-(sodiumoxysulfonyl)-α-D-galactopyranosyloxy]-4-octadecene] |  |  | 8 | 9 |  |
| CCCCCCCCCCCCC/C=C/[C@@H](OC(=O)c1ccccc1)[C@H](CO[C@H]1O[C@H](COS(=O)(=O)O)[C@@H](OS(=O)(=O)O)[C@H](OC(=O)c2ccccc2)[C@H]1OC(=O)c1ccccc1)NC(=O)CCCCCCCCCCCCCCC [Example 7, (2S,3R,4E)-3-Benzoyloxy-2-hexadecanoylamino-1-[-2,3-di-O-benzoyl-4,6-di-O-(sodiumoxysulfonyl)-α-D-glucopyranosyloxy]-4-octadecene] | 97 | 88 | 11 | ~0.4 |  |
| CCCCCC/C=C/[C@@H](OC(=O)c1ccccc1)[C@H](CO[C@H]1O[C@H](COS(=O)(=O)O)[C@H](OS(=O)(=O)O)[C@H](OC(=O)c2ccccc2)[C@H]1OC(=O)c1ccccc1)NC(=O)CCCCC [Example 10, (2S,3R,4E)-1-[2,3-di-O-benzoyl-4,6-Di-O-(sodiumoxysulfonyl)-α-D-galactopyranosyloxy]-3-benzoyloxy-2-hexanoylamino-4-undecene] | 71.6 | 11 | 8 | > 6.1 |  |
| CCCCCCCCCCCCC/C=C/[C@@H](OC(=O)c1ccccc1)[C@H](CO[C@H]1O[C@H](COS(=O)(=O)O)[C@H](OS(=O)(=O)O)[C@H](OCc2ccccc2)[C@H]1OCc1ccccc1)NC(=O)CCCCCCCCCCCCCCC [Example 11, (2S,3R,4E)-2-Hexadecanoylamino-3-benzoyloxy-1-[2,3-di-O-benzyl-4,6-di-O-(sodiumoxysulfonyl)-α-D-galactopyranosyloxy]-4-octadecene] | 53.7 | 32 | 8.9 | 1.7 |  |
| CCCCCCCCCCCCC/C=C/[C@@H](OC(=O)c1ccccc1)[C@H](CO[C@H]1O[C@H](COS(=O)(=O)O)[C@H](O)[C@H](O)[C@H]1OS(=O)(=O)O)NC(=O)CCCCCCCCCCCCCCC [Example 15, (2S,3R,4E)-3-Benzoyloxy-2-hexadecanoylamino-1-[2,6-di-O-(sodiumoxysulfonyl)-α-D-galactopyranosyloxy]-4-octadecene] | 0 | 50 | 5.2 | 2.2 |  |
| CCCCCCCCCCCCC/C=C/[C@@H](OC(=O)c1ccccc1)[C@H](CO[C@H]1O[C@H](COS(=O)(=O)O)[C@H](OS(=O)(=O)O)[C@H](OS(=O)(=O)O)[C@H]1OS(=O)(=O)O)NC(=O)CCCCCCCCCCCCCCC [Example 23, (2S,3R,4E)-3-Benzoyloxy-2-hexadecanoylamino-1-[2,3,4,6-tetra-O-(sodiumoxysulfonyl)-α-D-galactopyranosyloxy]-4-octadecene] | 26.4 | 0 | 2.6 | > 8 |  |
| dextran sulfate |  |  |  |  | inhibit P-selectin mediated adhesion |
| fucoidan |  |  |  |  | inhibit P-selectin mediated adhesion |
